Assay type in all cases: cell-based
Assay [1] concerns vaccinia virus mature virions (mYFP-MV).
Assay [2] has as its system vaccinia virus mature virions (EGFP-MV).
Assay [3] relates to vaccinia virus mature virions.
The test system of assay [4] is vaccinia virus mature virions (mYFP-MV). This is another data set of the same source.
For assay [5], the system named is MV-induced blebbing of HeLa cells. The conditions noted are these: microscopy.
The test system of assay [6] is vaccinia virus mature virions (MV entry).

Like-named read-outs stand apart in the source and are kept apart here.

ANX5: in assay [1], the “MV binding to cells” value was “without affecting MV binding” and the viral binding entry was “no effect”. In addition, in assay [2], the infectivity entry is on record as “no effect” and the “inhibition of infection by masking of viral PS” value worked out at 95%.

Consider `COC[C@H]1OC(=O)c2coc3c2[C@@]1(C)C1=C(C3=O)[C@@H]2CCC(=O)[C@@]2(C)C[C@H]1OC(C)=O` [wortmannin], for which the “inhibition of viral infection” value in assay [2] is reported as “up to 63%”.

As for phosphatidylserine [PS], in assay [3], the “fraction of original infectivity and plaque formation rescued” value came out at 90%.

For `CCN(c1nc(N)c(C(=O)N=C(N)N)nc1Cl)C(C)C` [EIPA, 5-N-ethyl-N-isopropyl-amiloride], the “internalization of MV into FITC-dextran positive vacuoles” value in assay [4] was “prevented internalization”. Besides, the MV-induced bleb formation entry in assay [5] is given as “inhibited bleb-formation”. Moreover, the “inhibition of viral infection” value in assay [2] was found to be 90%.

Consider `O=C(Nc1cccc(Nc2cc(Nc3cccc(C(F)(F)F)c3)ncn2)c1)C1CC1` [EGFR inhibitor 324674], for which the MV entry result in assay [6] is given as “effectively blocks MV entry”.

Regarding `O=c1c(-c2ccc(O)cc2)coc2cc(O)cc(O)c12` [genistein], the “inhibition of viral infection” value in assay [2] was “up to 82%”.

Turning to `Cc1ccc2c(c1)C(=O)C1(O)CCN(c3ccccc3)C1=N2` (centres unmarked) [Blebbistatin], the figures for the MV-induced bleb formation entry in assay [5] and in assay [5] (listed as blebbistatin) were “prevented formation of the blebs” and “inhibited bleb-formation”, respectively. The “inhibition of viral infection” value in assay [2] came to 62%.

The values are drawn from patent US20100272706A1, “ANTIVIRALS” (priority 2007, published 2010).
